These results are taken from patent publication EP3722296B1, “DIHYDRONAPHTHYRIDINES AND RELATED COMPOUNDS USEFUL AS KINASE INHIBITORS FOR THE TREATMENT OF PROLIFERATIVE DISEASES” (Deciphera Pharmaceuticals, LLC, priority 2012, dated 2013).

pIC50: −log10 of the molar value.

Test [1] addresses T1, c-KIT D816V kinase (Homo sapiens, UniProt P10721, D816V).
T1 construct: residues T544-V976 with N-terminal GST fusion; purchased deCODE Biostructures
The test is described as follows: c-KIT D816V kinase Assay. The format is biochemical. To be noted: enzymatic assay, ATP 200 uM. The procedure, abridged:
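Coupled assay in which NADH oxidation was tracked as decreasing absorbance at 340 nm, continuously for 5 hours at 30 °C after adding serially diluted compound. Enzyme: cKit residues T544-V976 with N-terminal tag, GST fusion and TEV cleavage site.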

Test [2] concerns the target T2, c-KIT VVDV kinase (Homo sapiens, UniProt P10721, D816V/DEL559-560).
T2 construct: This construct contains residues T544-V976 of cKit; GST (N); TEV cleavage site (internal); purchased deCODE Biostructures
The test is described as follows: cKIT-VVDV kinase Assay. To be noted: enzymatic assay; V559+V560 deletions and D816V mutation. The format is biochemical. As for the experimental part:
In this assay, the oxidation of NADH (measured by decrease in absorbance at 340 nm) was continuously monitored spectrophotometrically. […] The inhibition reaction was started by mixing serial diluted test compound with the above reaction mixture. The absorption at 340 nm was monitored continuously for 5 hours at 30 °C on Synergy 2 plate reader (BioTech). […] The protein construct was prepared by deCODE Biostructures using procedures known in the art. […] This construct is identical to Seq ID no.

The target in test [3] is T3, c-KIT T670I kinase (Homo sapiens, UniProt P10721, T670I).
T3 construct: The construct contains residues T544-V976 of cKit; GST (N); TEV cleavage site (internal); purchased deCODE Biostructures
T3 sequence (P10721 544-976 T670I): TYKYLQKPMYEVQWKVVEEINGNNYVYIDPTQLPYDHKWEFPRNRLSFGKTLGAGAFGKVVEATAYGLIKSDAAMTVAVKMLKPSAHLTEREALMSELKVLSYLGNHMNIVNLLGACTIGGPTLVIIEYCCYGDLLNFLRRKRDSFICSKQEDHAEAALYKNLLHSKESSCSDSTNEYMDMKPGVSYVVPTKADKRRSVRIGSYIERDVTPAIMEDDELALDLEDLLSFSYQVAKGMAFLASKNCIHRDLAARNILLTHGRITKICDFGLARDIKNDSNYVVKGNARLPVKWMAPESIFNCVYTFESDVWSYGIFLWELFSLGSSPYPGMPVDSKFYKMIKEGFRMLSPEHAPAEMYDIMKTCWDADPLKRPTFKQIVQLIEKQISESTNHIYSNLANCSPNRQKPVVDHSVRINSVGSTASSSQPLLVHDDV
Briefly: c-KIT T670I kinase assay. Format: biochemical. Particulars: enzymatic assay. The procedure, abridged:
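Coupled spectrophotometric assay following NADH oxidation as absorbance decrease at 340 nm, monitored continuously for 5 h at 30 °C after adding serially diluted compound. Enzyme is a cKit construct with N-terminal tag, GST fusion and TEV site, carrying the T670I mutation.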

The target in test [4] is c-KIT kinase (Homo sapiens, UniProt P10721). Briefly: c-KIT kinase Assay. The format is biochemical. Details: cKIT residues T544-V976; GST (N); TEV cleavage site (internal); purchased deCODE Biostructures. To be noted: enzymatic assay, ATP 200 µM; read-out: KIT (wt) IC50. The procedure, abridged:
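Activity of wild-type human c-KIT kinase was followed as NADH oxidation, read as falling absorbance at 340 nm on a Synergy 2 plate reader (BioTeK) for 2 hours at 30 °C. Rates from the 0 to 1 h window were compared with an uninhibited control to give percent inhibition. IC50 values were fitted in GraphPad Prism across a range of inhibitor concentrations.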

The target in test [5] is T4, c-KIT V654A kinase (Homo sapiens, UniProt P10721, V654A).
T4 construct: residues T544-V976 with N-terminal GST fusion; purchased deCODE Biostructures
T4 sequence (P10721 544-976 V654A): as the sequence (P10721 544-976 T670I) above, with V111A, I127T counted along it
Briefly: c-KIT V654A Kinase Assay. The format is biochemical. To be noted: enzymatic assay, ATP 200 µM. The procedure, abridged: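 Construct: cKIT residues T544–V976 with N-terminal tag, GST fusion and TEV site. Reaction started by adding serially diluted compound to the enzyme mixture; NADH oxidation, coupled to kinase turnover, followed as the decrease in A340 for 6 h at 30 °C.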

The subject of test [6] is Phospho-KIT (Tyr719). Briefly: GIST430 KIT Western Blot. Format: cell-based. Particulars: GIST430 cells, 4 hours, serum-free medium; read-out: pKIT suppression by western blot analysi GIST430. As for the experimental part:
(§1) GIST48, GIST430, and GIST882 cells were obtained from J. Fletcher (Brigham and Women's Hospital, Boston, MA). GIST T1 cells were obtained from B. Rubin (Cleveland Clinic, Cleveland, OH) and Professor Takahiro Taguchi (Kochi Medical School, Nankoku, Kochi, Japan). […] GIST430 cells were grown in Ham's F10 medium supplemented with 15% characterized fetal bovine serum (Invitrogen, Carlsbad, CA), 30 mg/L bovine pituitary extract (BD Biosciences, San Jose, CA), 0.5% Mito+ serum extender (BD Biosciences, San Jose, CA), 1 unit/mL penicillin G, 1 µg/ml streptomycin, and 0.29 mg/mL L-glutamine at 37 °C, 5%CO2, 95% humidity. GIST T1 cells were grown in DMEM medium supplemented with 10% characterized fetal bovine serum (Invitrogen, Carlsbad, CA), 1 unit/mL penicillin G, 1 µg/ml streptomycin, and 0.29 mg/mL L-glutamine at 37 °C, 5% CO2, and 95% humidity.
(§2) One hundred fifty thousand cells were added per well in a 24-well tissue-culture treated plate. […] Medium was aspirated, cells were washed with PBS, and serum-free Ham's F10 medium was added. […] Cells were washed with PBS, then lysed. Cell lysates were separated by SDS-PAGE and transferred to PVDF. Phospho-KIT (Tyr719) was detected using an antibody from Cell Signaling Technology (Beverly, MA), ECL Plus detection reagent (GE Healthcare, Piscataway, NJ) and a Molecular Devices Storm 840 phosphorimager in fluorescence mode. Blots were stripped and probed for total KIT using an antibody from Santa Cruz Biotech (Santa Cruz, CA). IC50 values were calculated using Prism software (Graphpad, San Diego, CA).
Background: Immunoblotting shows a protein as a band on a membrane.

Test [7] deals with Phospho-KIT (Tyr719). Briefly: GIST48 KIT Western Blot. The format is cell-based. To be noted: GIST48 cells, 4 hours, serum-free medium; read-out: pKIT suppression by western blot analysi GIST48. As for the experimental part: as §1
as §2, with “Two” for “One”, “RPMI1640” for “Ham's F10”

Test [8] has as its system GIST T1 cells. The test is described as follows: GIST T1 Cell Proliferation Assay. Format: cell-based. Particulars: Homo sapiens, GISTT1, 72 h, 68 hours + 4 hours resazurin. On the technique in general: The colour change of resazurin is a common sign of viable cells or microbes.

T2 sequence (P10721 with tags, fused parts or gaps DEL559-560/D816V): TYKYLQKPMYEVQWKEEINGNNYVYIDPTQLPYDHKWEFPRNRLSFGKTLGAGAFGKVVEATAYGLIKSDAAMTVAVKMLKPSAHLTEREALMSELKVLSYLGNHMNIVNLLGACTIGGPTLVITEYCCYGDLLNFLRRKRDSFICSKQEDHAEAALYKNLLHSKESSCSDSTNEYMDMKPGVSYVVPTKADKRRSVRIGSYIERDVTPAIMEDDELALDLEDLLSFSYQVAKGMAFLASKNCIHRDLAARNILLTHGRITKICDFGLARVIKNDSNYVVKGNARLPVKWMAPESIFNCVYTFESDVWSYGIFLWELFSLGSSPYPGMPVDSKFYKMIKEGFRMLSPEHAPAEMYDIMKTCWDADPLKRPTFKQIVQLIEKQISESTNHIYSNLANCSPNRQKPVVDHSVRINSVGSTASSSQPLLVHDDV
T1 sequence (P10721 544-976 D816V): as the sequence (P10721 544-976 T670I) above, with I127T, D273V counted along it
c-KIT kinase, sequence (P10721 544-976): as the sequence (P10721 544-976 T670I) above, with I127T counted along it

For `CCn1c(=O)c(-c2ccc(F)c(NC(=O)Nc3cccc4ccccc34)c2)cc2cnc(NC)cc21` [Example 2, 1-(5-(1-ethyl-7-(methylamino)-2-oxo-1,2-dihydro-1,6-naphthyridin-3-yl)-2-fluorophenyl)-3-(naphthalen-1-yl)urea], the pIC50 is 6.00 to 7.00 in test [1], 6.00 to 7.00 in test [2] and > 8.00 in test [3].
For `CNc1cc2c(cn1)cc(-c1ccc(F)c(NC(=O)Nc3ccccc3)c1)c(=O)n2C(C)C` [Example 5, 1-(2-fluoro-5-(1-isopropyl-7-(methylamino)-2-oxo-1,2-dihydro-1,6-naphthyridin-3-yl)phenyl)-3-phenylurea], the pIC50 in test [1] and in test [2] was 6.00 to 7.00 in each case.
As to `CNc1cc2c(cn1)cc(-c1cc(NC(=O)Nc3ccccc3)c(F)cc1Cl)c(=O)n2C` [Example 7, 1-(4-chloro-2-fluoro-5-(1-methyl-7-(methylamino)-2-oxo-1,2-dihydro-1,6-naphthyridin-3-yl)phenyl)-3-phenylurea], the pIC50 in test [1], in test [2] and in test [3] was 7.00 to 8.00 in each case.
As to `CNc1cc2c(cn1)cc(-c1cc(NC(=O)Nc3cccc4ccccc34)c(F)cc1Cl)c(=O)n2C` [Example 8, 1-(4-chloro-2-fluoro-5-(1-methyl-7-(methylamino)-2-oxo-1,2-dihydro-1,6-naphthyridin-3-yl)phenyl)-3-(naphthalen-1-yl)urea], the pIC50 in test [1] was 7.00 to 8.00; in test [2] it was 6.00 to 7.00; in test [3] it was 7.00 to 8.00.
For `CNc1cc2c(cn1)cc(-c1cc(NC(=O)Nc3cccc(C#N)c3)c(F)cc1Cl)c(=O)n2C` [Example 9, 1-(4-chloro-2-fluoro-5-(1-methyl-7-(methylamino)-2-oxo-1,2-dihydro-1,6-naphthyridin-3-yl)phenyl)-3-(3-cyanophenyl)urea], the pIC50 is 7.00 to 8.00 in test [1], 7.00 to 8.00 in test [2], 7.00 to 8.00 in test [3] and > 8.00 in test [4].
Take `CNc1cc2c(cn1)cc(-c1cc(NC(=O)Nc3cccc(F)c3F)c(F)cc1Cl)c(=O)n2C` [Example 10, 1-(4-chloro-2-fluoro-5-(1-methyl-7-(methylamino)-2-oxo-1,2-dihydro-1,6-naphthyridin-3-yl)phenyl)-3-(2,3-difluorophenyl)urea]: the pIC50 in test [1], in test [2] and in test [3] was 7.00 to 8.00 in each case.
As to `CCn1c(=O)c(-c2ccc(F)c(NC(=O)Nc3cccc(C#N)c3)c2)cc2cnc(NC)cc21` [Example 12, 1-(3-cyanophenyl)-3-(5-(1-ethyl-7-(methylamino)-2-oxo-1,2-dihydro-1,6-naphthyridin-3-yl)-2-fluorophenyl)urea], the pIC50 in test [1] is < 6.00; in test [2], 6.00 to 7.00.
`CNc1cc2c(cn1)cc(-c1cc(NC(=O)Nc3csc4ccccc34)c(F)cc1C)c(=O)n2C` [Example 13, 1-(benzo[b]thiophen-3-yl)-3-(2-fluoro-4-methyl-5-(1-methyl-7-(methylamino)-2-oxo-1,2-dihydro-1,6-naphthyridin-3-yl)phenyl)urea]: the values for the pIC50 in test [1], in test [2] and in test [3] were 7.00 to 8.00, > 8.00 and 7.00 to 8.00, respectively.
In the case of `CCn1c(=O)c(-c2cc(NC(=O)Nc3cccc(C#N)c3)c(F)cc2F)cc2cnc(NC)cc21` [Example 18, 1-(3-cyanophenyl)-3-(5-(1-ethyl-7-(methylamino)-2-oxo-1,2-dihydro-1,6-naphthyridin-3-yl)-2,4-difluorophenyl)urea], the pIC50 in test [1] was 6.00 to 7.00; in test [2] it was 7.00 to 8.00; in test [3] it was 7.00 to 8.00; in test [4], > 8.00.
On to `CCn1c(=O)c(-c2cc(NC(=O)Nc3csc4ccccc34)c(F)cc2F)cc2cnc(NC)cc21` [Example 19, 1-(benzo[b]thiophen-3-yl)-3-(5-(1-ethyl-7-(methylamino)-2-oxo-1,2-dihydro-1,6-naphthyridin-3-yl)-2,4-difluorophenyl)urea], for which the results for the pIC50 in test [1], in test [2] and in test [4] were > 8.00, 7.00 to 8.00 and > 8.00, respectively.
As for `CCn1c(=O)c(-c2c(Cl)ccc(NC(=O)Nc3ccccc3)c2F)cc2cnc(NC)cc21` [Example 26, 1-(4-chloro-3-(1-ethyl-7-(methylamino)-2-oxo-1,2-dihydro-1,6-naphthyridin-3-yl)-2-fluorophenyl)-3-phenylurea], the pIC50 in test [1] is < 6.00; in test [2], < 6.00; in test [4] it was 7.00 to 8.00.
Take `CCn1c(=O)c(-c2cc(NC(=O)Nc3cc(F)cc(F)c3)c(F)cc2F)cc2cnc(NC)cc21` [Example 63, 1-(3,5-difluorophenyl)-3-(5-(1-ethyl-7-(methylamino)-2-oxo-1,2-dihydro-1,6-naphthyridin-3-yl)-2,4-difluorophenyl)urea]: the pIC50 in test [5] is > 8.00; in test [1] it was 7.00 to 8.00; in test [3] it was 7.00 to 8.00; in test [6] it was 7.00 to 8.00; in test [7] it was 6.00 to 7.00; in test [8], > 8.00. Further, the pIC50 in test [4] was > 8.00.
On to `CCn1c(=O)c(-c2cc(NC(=O)Nc3cc(F)ccc3F)c(F)cc2Cl)cc2cnc(NC)cc21` [Example 68, 1-(4-chloro-5-(1-ethyl-7-(methylamino)-2-oxo-1,2-dihydro-1,6-naphthyridin-3-yl)-2-fluorophenyl)-3-(2,5-difluorophenyl)urea], for which the pIC50 in test [5] was 7.00 to 8.00; in test [1], 7.00 to 8.00; in test [3], 7.00 to 8.00; in test [6], 7.00 to 8.00; in test [7], 6.00 to 7.00; in test [8], > 8.00. For the same compound, the pIC50 in test [4] is > 8.00.
